Data taken from patent US12622915B2, “Methods of treating PDE IV-mediated diseases or conditions” (Vanda Pharmaceuticals Inc., priority 2020, dated 2026).

Tests used:
[1] = target: T1, Phosphodiesterase PDE9A2 (Homo sapiens, UniProt O76083); test: Phosphodiesterase PDE9A2 enzyme assay; format: biochemical; conditions: N=2, Example 3
T1 construct: host or cells: insect Sf9 cells
Excerpt: (§1) Reference standards are run as an integral part of each assay to ensure the validity of the results obtained. Reference Compounds: • Phosphodiesterase PDE10A2 Papaverine • Phosphodiesterase PDE11A4 Dipyridamole • Phosphodiesterase PDE1A MMPX • Phosphodiesterase PDE2A EHNA • Phosphodiesterase PDE3A Cilostamide • Phosphodiesterase PDE4A1A Rolipram • Phosphodiesterase PDE4B1 Rolipram • Phosphodiesterase PDE5A Zaprinast • Phosphodiesterase PDE6 Zaprinast • Phosphodiesterase PDE7A IBMX • Phosphodiesterase PDE7B IBMX • Phosphodiesterase PDE8A1 Dipyridamole • Phosphodiesterase PDE9A2 Zaprinast
(§2) Phosphodiesterase PDE1A; Phosphodiesterase PDE5A; and Phosphodiesterase PDE9A2: • Source: Human recombinant insect Sf9 cells • Substrate: 0.10 μM […] • Vehicle: 1.00% DMSO • Significance Crit.: ≥50% of max stimulation or inhibition • Incubation Buffer: 10 mM Tris-HCl, pH 7.2, 10 mM MgCl2, 0.05% NaN3, 0.1% phosphate-free BSA • Quantitation Method: Quantitation of Fluorescein-GMP-IMAP • Pre-Incub. Time/Temp: 15 minutes @25° C. • Incubation Time/Temp: 30 minutes @25° C.
(§3) IC50 values are determined by a non-linear, least squares regression analysis using MathIQ™ (ID Business Solutions Ltd., UK). […] Where presented, the Hill coefficient (nH), defining the slope of the competitive binding curve, is calculated using MathIQ™. […]

[2] = target: T2, Phosphodiesterase PDE2A (Homo sapiens, UniProt O00408); test: Phosphodiesterase PDE2A enzyme assay; format: biochemical; conditions: N=2, Example 3
T2 construct: host or cells: insect Sf9 cells
T2 sequence (O00408 whole entry): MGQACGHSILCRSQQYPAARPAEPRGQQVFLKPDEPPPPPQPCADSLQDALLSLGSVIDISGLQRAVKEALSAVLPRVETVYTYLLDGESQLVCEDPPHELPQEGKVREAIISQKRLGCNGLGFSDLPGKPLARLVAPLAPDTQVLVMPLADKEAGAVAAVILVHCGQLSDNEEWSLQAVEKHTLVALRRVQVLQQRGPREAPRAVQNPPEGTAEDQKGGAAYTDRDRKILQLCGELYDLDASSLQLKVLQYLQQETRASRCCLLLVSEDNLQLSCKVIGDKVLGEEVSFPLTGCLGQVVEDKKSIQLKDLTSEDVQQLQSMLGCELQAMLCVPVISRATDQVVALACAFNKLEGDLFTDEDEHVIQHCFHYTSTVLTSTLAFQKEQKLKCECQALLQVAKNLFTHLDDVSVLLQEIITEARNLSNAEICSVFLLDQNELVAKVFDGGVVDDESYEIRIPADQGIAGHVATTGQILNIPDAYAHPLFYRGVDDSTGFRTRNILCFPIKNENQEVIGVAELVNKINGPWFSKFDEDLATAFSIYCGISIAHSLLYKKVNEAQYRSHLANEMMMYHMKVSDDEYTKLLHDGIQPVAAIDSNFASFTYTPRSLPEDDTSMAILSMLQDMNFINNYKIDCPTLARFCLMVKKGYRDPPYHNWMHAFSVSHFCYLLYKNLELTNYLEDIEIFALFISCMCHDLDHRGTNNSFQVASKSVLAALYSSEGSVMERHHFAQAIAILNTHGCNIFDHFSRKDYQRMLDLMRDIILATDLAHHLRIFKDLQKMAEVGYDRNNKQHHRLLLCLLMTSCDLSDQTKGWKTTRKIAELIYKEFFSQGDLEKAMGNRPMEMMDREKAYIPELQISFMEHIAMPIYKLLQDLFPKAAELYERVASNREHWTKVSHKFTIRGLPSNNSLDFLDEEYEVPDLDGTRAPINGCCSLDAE
Excerpt: as §1
as §2, with “PDE4A1A;” for “PDE1A;”, “PDE4B1; Phosphodiesterase PDE10A2; Phosphodiesterase PDE11A4; Phosphodiesterase PDE2A; Phosphodiesterase PDE3A; Phosphodiesterase PDE7A; Phosphodiesterase PDE7B;” for “PDE5A;”, “PDE8A1:” for “PDE9A2:”, “Fluorescein-AMP-IMAP” for “Fluorescein-GMP-IMAP”
(§4) IC50 values are determined by a non-linear, least squares regression analysis using MathIQ™ (ID Business Solutions Ltd., UK). […]

[3] = target: T3, Phosphodiesterase PDE7B (Homo sapiens, UniProt Q9NP56); test: Phosphodiesterase PDE7B enzyme assay; format: biochemical; conditions: N=2, Example 3
T3 construct: host or cells: insect Sf9 cells
T3 sequence (Q9NP56 whole entry): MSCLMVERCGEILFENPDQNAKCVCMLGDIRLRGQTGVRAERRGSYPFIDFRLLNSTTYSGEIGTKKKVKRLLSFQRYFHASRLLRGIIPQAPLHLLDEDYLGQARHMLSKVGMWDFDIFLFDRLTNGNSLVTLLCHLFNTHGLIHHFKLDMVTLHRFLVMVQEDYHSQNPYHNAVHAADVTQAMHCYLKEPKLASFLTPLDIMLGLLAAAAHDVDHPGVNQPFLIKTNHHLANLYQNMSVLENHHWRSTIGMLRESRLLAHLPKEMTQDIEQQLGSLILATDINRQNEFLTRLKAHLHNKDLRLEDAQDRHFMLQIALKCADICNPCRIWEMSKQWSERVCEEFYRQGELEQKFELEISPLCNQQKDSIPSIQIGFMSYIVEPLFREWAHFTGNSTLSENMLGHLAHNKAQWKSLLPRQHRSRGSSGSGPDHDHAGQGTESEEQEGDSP
Excerpt: as §1
as §2, with “PDE4A1A;” for “PDE1A;”, “PDE4B1; Phosphodiesterase PDE10A2; Phosphodiesterase PDE11A4; Phosphodiesterase PDE2A; Phosphodiesterase PDE3A; Phosphodiesterase PDE7A; Phosphodiesterase PDE7B;” for “PDE5A;”, “PDE8A1:” for “PDE9A2:”, “Fluorescein-AMP-IMAP” for “Fluorescein-GMP-IMAP”
as §4

[4] = Plasma and ear skin concentration in IMQ model, day 6; format: in vivo, BALB/c mice; conditions: day 6, post 2h treatment, topical 0.5%
Protocol: On day 6, blood is collected by retro-orbital bleeding under isoflurane anesthesia prior to euthanasia. Blood is collected in K2-EDTA tubes and plasma is separated and stored at −80° C. for further analysis (for test item concentration).
On day 6, post 2h treatment, plasma and ear skin concentration of animals treated with the compound of Formula (I) are estimated. […] The concentration in the ear skin is close to 976-fold more than the plasma levels.

[5] = Preclinical genotoxicity studies (mutations, clastogenic effects); conditions: in vitro or in vivo
[6] = target: T4, Phosphodiesterase PDE5A (Homo sapiens, UniProt O76074); test: Phosphodiesterase PDE5A enzyme assay; format: biochemical; conditions: N=2, Example 3
T4 construct: host or cells: insect Sf9 cells
Excerpt: as §1, §2, §3

T1 sequence (O76083 1-533 isoform O76083-2): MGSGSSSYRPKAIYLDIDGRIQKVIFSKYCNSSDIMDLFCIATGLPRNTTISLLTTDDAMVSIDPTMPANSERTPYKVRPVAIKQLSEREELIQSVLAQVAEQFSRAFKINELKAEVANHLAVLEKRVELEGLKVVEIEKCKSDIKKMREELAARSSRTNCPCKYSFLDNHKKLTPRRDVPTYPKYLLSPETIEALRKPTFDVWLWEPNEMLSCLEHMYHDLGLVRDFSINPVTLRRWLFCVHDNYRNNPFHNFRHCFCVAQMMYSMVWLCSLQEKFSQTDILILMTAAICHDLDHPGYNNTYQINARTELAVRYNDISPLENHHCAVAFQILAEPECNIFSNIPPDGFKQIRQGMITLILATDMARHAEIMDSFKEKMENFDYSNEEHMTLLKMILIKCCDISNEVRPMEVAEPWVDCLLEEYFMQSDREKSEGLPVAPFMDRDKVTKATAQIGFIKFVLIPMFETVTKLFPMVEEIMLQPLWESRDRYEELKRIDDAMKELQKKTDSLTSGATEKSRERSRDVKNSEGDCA

- inhibition at 10 µM [1]: -2%
- inhibition at 10 µM [2]: 9%
- inhibition at 10 µM [3]: -1%
- Kp ([4]; BALB/c, mouse, ear skin / plasma, read-out: Concentration in the ear skin relative to plasma levels): ~976
- Concentrations in plasma and ear skin [4]: Significant concentrations
- inhibition at 10 µM [6]: 27%
SMILES: CNc1nc(Nc2ccccc2)nc(OCC(F)(F)C(F)F)n1 [compound of Formula (I), N^2-methyl-N^4-phenyl-6-(2,2,3,3-tetrafluoropropoxy)-1,3,5-triazine-2,4-diamine]
- Mutations or biologically relevant clastogenic effects [5]: does not induce mutations or biologically relevant clastogenic effects
